In the series the test system is human subjects (skin of the back). The experiment in a line: 14-Day Cumulative Irritation Assay (occlusive patch, comparative dermal irritation potential). The series is classed as in vivo. The source says: In the following study, the tested solutions were at a total surfactant actives content of 0.5% by weight. […] 14-Day Cumulative Irritation Assay of the Comparitive Dermal Irritation Potential of a Series of Test Articles The objective of this study was to determine the comparative dermal irritation potential of a series of nine (9) test articles on twenty-five (25) subjects using a 14-Day Cumulative Irritation Assay. Twenty-five (25) subjects, 1 male and 24 females, ranging in age from 18 to 55 years were empaneled for this test. […] Each day during the duration of the study, patches were removed and the sites were evaluated for irritation using the 6-point scoring system outlined below. […] This procedure was repeated at each visit for a period of fourteen (14) consecutive days, excluding Sundays (Saturday's patches were worn until Monday. Monday's irritation scores were recorded as Sunday's scores and Sunday was counted as an exposure day). Patch test sites were evaluated daily and scores were recorded on a Cumulative Irritation Patch Test recording form. Individual test article scores were calculated via summation of the results for each day. […] The following day's score was “carried back” and recorded for the missed visit day. […]

For `CCCCCCCCCCCCOS(=O)(=O)[O-].[Na+]` [Test Article #9, Sodium lauryl sulphate], the “Total Cum. Irrit. Scores” value (sum of total cumulative score for 14 days, 22 subjects, highest possible 924, solutions at 0.5% total surfactant actives) is 844.5. Besides, the “Mean Cum. Irrit. Scores” value (total divided by 22 subjects, highest possible 42, 14 days, 0.5% total surfactant actives) is recorded as 38.4.
